# Laboratory results as given in the supplement of paper PMC10307832.
# Experiments:
# Test in all cases: relative viability (nuclei count vs DMSO), 5 days (fraction); higher = more cells survive
# Tozasertib = compound: Cc1cc(Nc2cc(N3CCN(C)CC3)nc(Sc3ccc(NC(=O)C4CC4)cc3)n2)n[nH]1 [Tozasertib]
# Procedure, shortened: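 Vehicle-anchored 1536-well plates of lung cancer cell lines, held overnight at 37 °C, were pinned with five library-drug doses (not always all listed) spaced by √10. No medium change followed over the next 5 days, after which the cells were fixed, permeabilised and Hoechst-stained together and imaged at 4×. Nuclei were counted with MetaXpress, and viability is treated-well nuclei over vehicle-well nuclei, taken as a median across plates. Plates passed with control CV below 25% and at least one doubling.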
# Tozasertib + Bortezomib = compound: Cc1cc(Nc2cc(N3CCN(C)CC3)nc(Sc3ccc(NC(=O)C4CC4)cc3)n2)n[nH]1 [Tozasertib] + CC(C)C[C@H](NC(=O)[C@H](Cc1ccccc1)NC(=O)c1cnccn1)B(O)O [Bortezomib] (partner 0.002 µM)
# Procedure, shortened: (§1)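 One day after seeding in 1536-well plates, lung cancer cell lines were dosed by pin tool. Dosing was either single-drug or a fixed anchor-drug dose plus five library-drug doses (not always all listed) in √10 steps. After 5 days, nuclei were stained in one fix-and-stain step and counted on 4× images, and relative viability is the nuclei count of treated wells over that of vehicle wells, given as the median of duplicate plates.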
# Tozasertib + OSI-027 = compound: Cc1cc(Nc2cc(N3CCN(C)CC3)nc(Sc3ccc(NC(=O)C4CC4)cc3)n2)n[nH]1 [Tozasertib] + COc1cccc2cc(-c3nc([C@H]4CC[C@H](C(=O)O)CC4)n4ncnc(N)c34)[nH]c12 [OSI-027] (partner 0.5 µM)
# Procedure, shortened: as §1
# Tozasertib + Pictilisib = compound: Cc1cc(Nc2cc(N3CCN(C)CC3)nc(Sc3ccc(NC(=O)C4CC4)cc3)n2)n[nH]1 [Tozasertib] + CS(=O)(=O)N1CCN(Cc2cc3nc(-c4cccc5[nH]ncc45)nc(N4CCOCC4)c3s2)CC1 [Pictilisib] (partner 1 µM)
# Procedure, shortened: as §1
Cell Line,relative viability (Tozasertib; 0.004 µM),relative viability (Tozasertib; 0.01265 µM),relative viability (Tozasertib; 0.04 µM),"relative viability (Tozasertib; 0.1 µM, anchor plate)",relative viability (Tozasertib; 0.1265 µM),relative viability (Tozasertib + Bortezomib; first compound 0.004 µM),relative viability (Tozasertib + Bortezomib; first compound 0.01265 µM),relative viability (Tozasertib + Bortezomib; first compound 0.04 µM),relative viability (Tozasertib + Bortezomib; first compound 0.1265 µM),relative viability (Tozasertib + OSI-027; first compound 0.004 µM),relative viability (Tozasertib + OSI-027; first compound 0.01265 µM),relative viability (Tozasertib + OSI-027; first compound 0.04 µM),relative viability (Tozasertib + OSI-027; first compound 0.1265 µM),relative viability (Tozasertib + Pictilisib; first compound 0.004 µM),relative viability (Tozasertib + Pictilisib; first compound 0.01265 µM),relative viability (Tozasertib + Pictilisib; first compound 0.04 µM),relative viability (Tozasertib + Pictilisib; first compound 0.1265 µM)
LXF-289,1,0.972,0.943,0.199,0.759,1,0.917,0.972,0.777,0.695,0.731,0.779,0.441,0.835,0.828,0.778,0.789
NCI-H23,1.05,0.953,0.885,0.365,0.501,1.06,1.24,1.11,0.424,0.614,0.629,0.666,0.453,0.566,0.555,0.541,0.337
NCI-H322M,0.92,,1.02,0.493,0.682,0.993,1.12,1.39,1.23,0.546,0.502,0.561,0.412,0.485,0.474,0.576,0.419
NCI-H441,0.987,,,0.664,,0.424,0.298,0.379,0.213,0.57,0.647,0.568,0.6,0.431,0.447,0.477,0.304
NCI-H460,1.01,0.955,1.04,0.415,0.868,1.13,0.949,1.46,0.844,0.855,0.645,0.668,0.519,0.337,0.346,0.389,0.319
NCI-H520,1.07,0.934,1.07,0.458,0.547,0.555,0.585,0.852,0.255,0.356,0.26,0.254,0.234,0.315,0.268,0.288,0.186
NCI-H596,0.993,0.883,1.01,0.919,0.988,1.06,1.1,1.06,0.796,0.785,0.628,0.797,0.771,0.399,0.395,0.395,0.332
NCI-H647,1.04,,0.926,0.279,0.458,1.17,,1.16,0.447,0.836,0.763,0.763,0.33,0.442,,0.476,0.171
NCI-H650,0.993,0.934,0.918,0.724,0.606,0.663,0.68,0.976,0.523,0.549,0.512,0.535,0.452,0.917,0.813,0.823,0.756
NCI-H661,0.976,0.94,1,0.367,0.68,0.922,0.741,1.03,0.499,0.731,0.747,0.722,0.302,0.461,0.394,0.404,0.349
NCI-H727,1.15,0.879,1.11,0.667,0.78,1.07,1.04,1.02,0.53,0.75,0.536,0.683,0.539,0.357,0.354,0.391,0.299
NCI-H838,0.994,0.951,1.06,0.265,0.683,0.757,0.801,1.32,0.281,0.485,0.354,0.426,0.257,0.453,0.425,0.427,0.202
NCI-H1355,1.03,0.956,1.05,0.585,0.817,1.19,1.15,1.27,0.606,0.368,0.383,0.458,0.343,0.426,0.461,0.52,0.272
NCI-H1437,1.01,0.941,0.924,0.406,,0.757,0.509,0.55,0.31,1,0.794,0.874,0.606,0.479,0.385,0.448,0.318
NCI-H1650,1.03,0.918,1.09,0.418,0.502,0.202,0.207,0.24,0.2,0.689,0.602,0.621,0.302,0.589,0.557,0.639,0.204
NCI-H1651,1.02,0.949,0.984,0.698,0.922,1.05,0.851,0.979,0.885,0.888,0.645,,0.666,0.655,0.62,0.634,0.377
NCI-H1666,0.901,0.892,0.975,0.601,0.846,0.772,0.748,,0.434,0.859,,0.814,0.765,0.455,0.412,0.586,0.305
NCI-H1734,1.01,0.957,0.95,0.266,0.504,0.833,0.998,1.07,0.464,0.597,0.596,0.557,0.435,0.528,0.494,0.518,0.401
